Measured values reported in patent publication US20250090537A1, “ANTIVIRAL COMPOUNDS AND METHODS OF MAKING AND USING THE SAME” (Gilead Sciences, Inc., priority 2023, published 2025).

Assays:
RSV strain A2 = assay: RSV Cellomics assay for RSV A2 antiviral activity (EC50-RSV-Hep2-96-Cellomics); assay type: cell-based; conditions: human respiratory syncytial virus, HEp-2, 72 h; Hep2 cells infected with RSV strain A2, MOI=0.05, 3 days; Example B1
Description: Example B1: RSV Cellomics Assay for RSV A2 Antiviral Activity (EC50-RSV-Hep2-96-Cellomics) 8×10^3 Hep2 cells are seeded into 96 well plates in 100 μL of media (DMEM supplemented with GlutaMAX, 10% FBS and Pen/Strep) and briefly spun at 50×g for 1 minute to attach cells. Cells were further allowed to attach with overnight incubation at 37° C.+5% CO2. The following day, the media was aspirated and 100 μL of fresh DMEM media containing 2% FBS was added. A three-fold dilution series of compounds of interest are then added to the plate using the Tecan D300e dispenser and the plate is normalized to the well with the highest volume of DMSO. The cells are next infected by adding 100 μL of media containing RSV strain A2 at an MOI=0.05 and the plates incubated for 3 days at 37° C.+5% CO2. Following the incubation, the media is removed, and the cells are washed once with 250 μL PBS and fixed with 250 μL ice-cold 100% methanol for 10 minutes at 4° C. The methanol is then removed and the plates air dried for 5 minutes and then washed once with 250 μL PBS to remove any residual methanol. The wells are then blocked 60 µL/well of BlockAid (B10710, Thermo-Fisher) for 1 hour at RT on rocker at which point the blocking buffer is carefully aspirated. Primary antibody against the RSV F protein (MAB 858-1) is then diluted 1:2000 in SuperBlock (37515, Thermo Fisher) and 50 μL of the primary antibody solution is added to each well. The plates are incubated at room temperature for 1 hour with gentle agitation and then washed with 250 μL of PBS-Tween 3 times. A goat anti-mouse AlexaFluor 647 conjugated secondary antibody (Sigma, A21235) is then diluted 1:2000 and Hoescht 33342 (H3570) at 1:1000 in SuperBlock and 50 μL added to the wells for 1 hour at 37° C. After incubation the antibody solution is aspirated, and the wells are then washed with 250 μL of PBS-Tween 3 times. To keep cells from drying out, 100 μL of PBS is added to each well and the plates are sealed with black plate seal. Fluorescence at the 647 nm wavelength is measured using a Cellomics CellInsight CX7 machine. Compound activity is determined as a percentage of the % positive cells (or average intensity) compared to DMSO treated RSV infected well controls following subtraction of uninfected controls. The EC50 values are then calculated using nonlinear regression analysis in GraphPad Prism.

[1] = MT4 CC50 cytotoxicity (CC50-MT4-384); assay type: cell-based; conditions: human; uninfected MT-4 cells, 4-5 days, Cell-Titer Glo; Example G
Description: Example G. HEp-2 and MT4 CC50
Cytotoxicity of the compounds was determined in uninfected cells using the cell viability reagent in a similar fashion as described before for other cell types (Cihlar et al., ANTIMICROB AGENTS CHEMOTHER. 2008, 52(2):655-65). HEp-2 (1.5×10^3 cells/well) and MT-4 (2×10^3 cells/well) cells were plated in 384-well plates and incubated with the appropriate medium containing 3-fold serially diluted compound ranging from 15 nM to 100,000 nM. Cells were cultured for 4-5 days at 37° C. Following the incubation, the cells were allowed to equilibrate to 25° C., and cell viability was determined by adding Cell-Titer Glo viability reagent. The mixture was incubated for 10 min, and the luminescence signal was quantified using an Envision plate reader. Untreated cell and cells treated at 2 μM puromycin (Sigma, St. Louis, MO) serve as 100% and 0% cell viability control, respectively. The percent of cell viability was calculated for each tested compound concentration relative to the 0% and 100% controls and the CC50 value was determined by non-linear regression as a compound concentration reducing the cell viability by 50%.

EC50 (RSV strain A2) [µM] | SMILES | CC50 [1] [µM]
9.75 | N#C[C@]1(CO)O[C@@H](c2ccc3c(N)ncnn23)[C@H](O)[C@@H]1O [Compound 0, (2R,3S,4R,5S)-5-(4-aminopyrrolo[1,2-f][1,2,4]triazin-7-yl)-3,4-dihydroxy-2-(hydroxymethyl)tetrahydrofuran-2-carbonitrile, reference compound] | 
36.6 | CCOC(=O)O[C@H]1[C@H](c2ccc3c(N)ncnn23)O[C@](C#N)(COC(=O)C(C)C)[C@H]1OC(=O)OCC [Compound 3, ((2R,3S,4S,5S)-5-(4-aminopyrrolo[2,1-f][1,2,4]triazin-7-yl)-2-cyano-3,4-bis((ethoxycarbonyl)oxy)tetrahydrofuran-2-yl)methyl isobutyrate] | > 50
19.2 | CCOC(=O)O[C@H]1[C@H](c2ccc3c(N)ncnn23)O[C@](C#N)(COC(C)=O)[C@H]1OC(=O)OCC [Compound 1, ((2R,3S,4S,5S)-5-(4-aminopyrrolo[2,1-f][1,2,4]triazin-7-yl)-2-cyano-3,4-bis((ethoxycarbonyl)oxy)tetrahydrofuran-2-yl)methyl acetate] | > 50
37.5 | CCOC(=O)O[C@H]1[C@H](c2ccc3c(N)ncnn23)O[C@](C#N)(COC(=O)CC(C)(C)C)[C@H]1OC(=O)OCC [Compound 4, ((2R,3S,4S,5S)-5-(4-aminopyrrolo[2,1-f][1,2,4]triazin-7-yl)-2-cyano-3,4-bis((ethoxycarbonyl)oxy)tetrahydrofuran-2-yl)methyl 3,3-dimethylbutanoate] | > 50
